Details of data set [1]: method as in doi:10.5935/0103-5053.20160038. Conditions: due to optimal hydrophilicity/lipophilicity; cited from earlier work.
Data set [2] relates to MCF-7 breast cancer cell line. Set-up: method as in PMID 25096298. Particulars: cited from earlier work.
The subject of data set [3] is anti-apoptotic Bcl protein. Also on record: method as in PMID 20405848. Conditions: cited from earlier work.
In data set [4] the test system is MCF-7 (human mammary duct adenocarcinoma cell line). The data set is described as follows: MTT cytotoxicity test, MCF-7. It is filed as cell-based. Particulars: triplicate. How it is done:
(§1) Formazan crystals were added to 100 µL of DMSO. […] The experiments for all compounds were repeated three times.

Data set [5] concerns Chang liver (HeLa derivative) human liver cells. The data set can be described thus: MTT cytotoxicity test, normal Chang liver cells. Conditions: 48 h, read-out: IC50 Chang Liver (HeLa), normal cell line.
Description: (§2) For the experiments, tumor cell cultures of M-HeLa clone 11 (epithelioid carcinoma of the cervix, subline HeLa., clone M-HeLa), HuTu 80, human duodenal adenocarcinoma, MCF7—human breast adenocarcinoma (pleural fluid) collected from Institute of Cytology, Russian Academy of Sciences (St. Petersburg, Russia); PC3—prostate adenocarcinoma cell line collected from ATCC (American Type Cell Collection, Manassas, VA, USA; CRL 1435; human liver cells (Chang liver) and the Research Institute of Virology of the Russian Academy of Medical Sciences (Moscow, Russia) were used for cytotoxicity analysis.
(§3) The cytotoxic effect on cells was determined using the colorimetric method of cell proliferation—the MTT test. NADP-H-dependent cellular oxidoreductase enzymes can, under certain conditions, reflect the number of viable cells. These enzymes are able to reduce the tetrazolium dye (MTT)—3-(4,5-dimethylthiazol-2-yl)-2,5-diphenyl-tetrazolium bromide to insoluble blue-violet formazan, which crystallizes inside the cell. The amount of formazan formed is proportional to the number of cells with active metabolism. Cells were seeded on a 96-well Nunc plate at a concentration of 5 × 10^3 cells per well in a volume of 100 μL of medium and cultured in a CO2 incubator at 37 °C until a monolayer was formed. […] After 48 h of incubation of the cells with the tested compounds, the nutrient medium was removed from the plates and 100 µL of the nutrient medium without serum with MTT at a concentration of 0.5 mg/mL was added and incubated for 4 h at 37 °C. Formazan crystals were added to 100 µL of DMSO. Optical density was recorded at 540 nm on an Invitrologic microplate reader (Novosibirsk, Russia). The experiments for all compounds were repeated three times.
(§4) Statistical analysis was performed using the Mann–Whitney test (p < 0.05). Tabular and graphical data contain the averages and standard error.
Data set [6] can be described thus: MTT cytotoxicity test, normal Chang liver cells. Conditions: human.
Description: as §2, §3, §4
In data set [7] the test system is Chk1, Chk2, H2AX, MDM2, p53, p21, ATR in M-HeLa cells. The data set can be described thus: Multiplex analysis of DNA damage/genotoxicity markers (MILLIPLEX MAP 7-plex, Luminex). Format: cell-based. Conditions: IC50/2 and IC50, 24 h. The text has this:
Classical methods of assessing genotoxicity reveal mutations associated with increased or loss of function, but are not informative enough in studying the molecular mechanisms of DNA damage. The MILLIPLEX® MAP 7-plex DNA Damage/Genotoxicity Magnetic Bead kit allows to detect the expression and phosphorylation of a number of proteins involved in DNA damage, providing a faster and more accurate assessment of the state of the cell after exposure to genotoxic compounds. The 7-plex DNA Damage/Genotoxicity Magnetic Bead Kit is used to detect changes in phosphorylated Chk1 (Ser345), Chk2 (Thr68), H2AX (Ser139) and p53 (Ser15), as well as total protein levels of ATR, MDM2, and p21 in cellular lysates using the Luminex® system. […] The obtained results characterize the effect of the leading compound 7 on the DNA of M-HeLa cells at concentrations of IC50/2 and IC50. […] The fluorescence intensity of OTR markers also increases relative to the reference sample. […]
The studies were carried out according to the standard protocol. […] A total of 20 μg of total protein of each lysate diluted in MILLIPLEX® MAP Assay Buffer 2 was analyzed according to the analysis protocol (the lysate was incubated at 4 °C overnight). The mean fluorescence intensity (MFI) was detected using Luminex® system, MERCK, Kenilworth, NJ, USA.

Data set [8] concerns HuTu 80 human duodenal adenocarcinoma. The data set can be described thus: MTT cytotoxicity test, HuTu 80. Format: cell-based. Conditions: triplicate. How it is done: as §1
In data set [9] the test system is PC3 prostate adenocarcinoma cell line. The data set is described as follows: MTT cytotoxicity test, PC3. It is filed as cell-based. Particulars: mean ± SD, triplicate. The method, then:
as §1

Data set [10] relates to M-HeLa clone 11 (epithelioid carcinoma of the cervix, subline HeLa, clone M-HeLa). The data set is described as follows: MTT cytotoxicity test, M-HeLa. Conditions: mean ± SD, triplicate. It is filed as cell-based. The method, then:
as §1

Setting [11] is: Homo sapiens, MCF7, 48 h, mean ± SD, read-out: IC50 MCF-7.
Where [12] appears, read: Homo sapiens, MCF7, mean ± SD, lead compounds, read-out: IC50 MCF-7 (Table 2).
[13] abbreviates: Homo sapiens, HuTu80, 48 h, mean ± SD, read-out: IC50 HuTu 80.
Setting [14] is: Homo sapiens, HuTu80, mean ± SD, lead compounds, read-out: IC50 HuTu 80 (Table 2).
The mark [15] stands for this setting: lead compounds, read-out: IC50 PC3 (Table 2).
Where [16] appears, read: Homo sapiens, M-HeLa, 48 h, read-out: IC50 M-HeLa.
Where [17] appears, read: Homo sapiens, M-HeLa, lead compounds, read-out: IC50 M-HeLa (Table 2).

Read-outs that look alike come from different tables or passages of the source.

Turning to `COc1ccc2c(c1)CCC1=C2N=c2s/c(=C\c3c[nH]c4ccc(Br)cc34)c(=O)n2C1c1ccc(Cl)cc1` (stereo not drawn) [Compound 1], the “absorption ability in the gastrointestinal tract” value in data set [1] is “high absorption ability”. Further, in [2], the “cytotoxicity efficiency relative to doxorubicin” value is on record as 1.15 times.
For `COc1ccc(C2C3=C(N=c4s/c(=C\c5c[nH]c6ccc(Br)cc56)c(=O)n42)c2ccc(OC)cc2CC3)cc1` (stereo not drawn) [Compound 3], in data set [3], the 50% inhibitory concentration (IC50) is 3.4 µM.
Consider `CCOC(=O)C1=C(C)N=c2s/c(=C\c3ccccc3O)c(=O)n2C1c1ccccc1` (stereo not drawn) [Compound 7, ethyl (Z)-2-(2-hydroxybenzylidene)-7-methyl-3-oxo-5-phenyl-2,3-dihydro-5H-thiazolo[3,2-a]pyrimidine-6-carboxylate], for which the IC50 was 43.7 ± 3.5 µM in data set [4] (setting [11]); 43.7 ± 3.5 µM in data set [4] (setting [12]); 75 ± 5.7 µM in [5] (Homo sapiens, HeLa); 10.2 ± 0.8 µM in data set [8] (setting [13]); 10 ± 0.8 µM in [8] (setting [14]); 77.6 ± 6.7 µM in [9] (48 h, read-out: IC50 PC3). Moreover, the figures for the IC50 in data set [9] (setting [15]), in [10] (setting [16]) and in data set [10] (setting [17]) were 77.6 ± 6.7 µM, 11.9 ± 0.9 µM and 11.9 ± 0.9 µM, respectively. Further, the midpoint of inhibition in [6], the IC50 at 48 h, lay at 75 ± 5.7 µM. The “average fluorescence intensity of the markers Chk1, Chk2, H2AX, MDM2, p53, and p21” value in [7] (compared to untreated control) was “significantly increase”. Besides, the “fluorescence intensity of OTR markers” value in [7] (relative to the reference sample) is on record as “increases”.
Turning to `CCOC(=O)C1=C(C)N=c2s/c(=C\c3ccccc3O)c(=O)n2C1c1cccc([N+](=O)[O-])c1` (stereo not drawn) [Compound 10, Ethyl (Z)-2-(2-hydroxybenzylidene)-7-methyl-5-(3-nitrophenyl)-3-oxo-2,3-dihydro-5H-thiazolo[3,2-a]pyrimidine-6-carboxylate], the melting point lay within 187 to 189 °C. The IC50 in data set [4] (setting [11]) was determined as 56 ± 4.5 µM. For the same compound, the half-inhibitory concentration (IC50) in data set [4] (setting [12]) was found to be 56 ± 4.5 µM. Also, the IC50 in data set [5] (Homo sapiens, HeLa) worked out at 88 ± 7 µM. Inhibition in data set [6] was half-maximal at 88 ± 7 µM (IC50 at 48 h). In data set [8] (setting [13]), the IC50 came out at 60 ± 4.7 µM. Also, in data set [8] (setting [14]), the IC50 was 14.6 ± 0.3 µM. Besides, in data set [9] (48 h, read-out: IC50 PC3), the IC50 is 56 ± 4.4 µM. In [9] (setting [15]), the IC50 turned out to be 56 ± 4.4 µM. Also, in data set [10] (setting [16]), the half-maximal inhibitory concentration (IC50) stood at 55 ± 4.4 µM. Also, the IC50 in [10] (setting [17]) is 55 ± 4.4 µM.
The compound `COc1ccccc1C1C(C(=O)c2ccccc2)=C(C)N=c2s/c(=C\c3ccccc3O)c(=O)n21` (stereo not drawn) [Compound 11, (Z)-6-benzoyl-2-(2-hydroxybenzylidene)-5-(2-methoxyphenyl)-7-methyl-5H-thiazolo[3,2-a]pyrimidin-3(2H)-one] yielded a melting point of 167 to 169 °C. For the same compound, the IC50 in data set [4] (setting [11]) stood at 81 ± 7.4 µM. Besides, in data set [5] (Homo sapiens, HeLa), the IC50 was 64 ± 5.1 µM. The concentration for half-maximal inhibition (IC50) in [8] (setting [13]) turned out to be 39 ± 3.1 µM. In data set [9] (48 h, read-out: IC50 PC3), the IC50 is 54 ± 4.3 µM. Moreover, the IC50 in data set [10] (setting [16]) was found to be 56.4 ± 4.5 µM.
The compound `CCOC(=O)C1=C(C)N=c2s/c(=C\c3ccccc3O)c(=O)n2C1c1ccc(Br)cc1` (stereo not drawn) [Compound 12, Ethyl (Z)-5-(4-bromophenyl)-2-(2-hydroxybenzylidene)-7-methyl-3-oxo-2,3-dihydro-5H-thiazolo[3,2-a]pyrimidine-6-carboxylate] yielded a melting point of 201 to 203 °C. Besides, the IC50 in data set [4] (setting [11]) amounted to 22.3 ± 1.4 µM. In data set [4] (setting [12]), the IC50 turned out to be 52.7 ± 4.2 µM. The IC50 in [5] (Homo sapiens, HeLa) amounted to 78.2 ± 6.2 µM. Moreover, in data set [6], 78.2 ± 6.2 µM corresponded to half-maximal inhibition (IC50 at 48 h). The IC50 in [8] (setting [13]) amounted to 23.7 ± 1.8 µM. Also, the concentration for half-maximal inhibition (IC50) in [8] (setting [14]) amounted to 23.7 ± 1.8 µM. Besides, in data set [9] (48 h, read-out: IC50 PC3), the IC50 turned out to be 28.1 ± 2.2 µM. Moreover, the IC50 in [9] (setting [15]) came to 28.1 ± 2.2 µM. In addition, the IC50 in data set [10] (setting [16]) is 18.8 ± 1.5 µM. In addition, the IC50 in data set [10] (setting [17]) was found to be 18.8 ± 1.5 µM.
Consider `CCOC(=O)C1=C(C)N=c2s/c(=C\c3ccc(O)cc3)c(=O)n2C1c1ccccc1` (stereo not drawn) [Compound 13, ethyl (Z)-2-(4-hydroxybenzylidene)-7-methyl-3-oxo-5-phenyl-2,3-dihydro-5H-thiazolo[3,2-a]pyrimidine-6-carboxylate], for which the IC50 in [4] (setting [11]) was greater than 100 µM; in [5] (Homo sapiens, HeLa) it was 86.1 ± 6.8 µM; in [8] (setting [13]), 43.3 ± 3.5 µM; in [9] (48 h, read-out: IC50 PC3), 54 ± 4.3 µM; in [10] (setting [16]), 70 ± 5.5 µM.
On to `CCOC(=O)C1=C(C)N=c2s/c(=C\c3ccc(O)cc3)c(=O)n2C1c1ccc(Br)cc1` (stereo not drawn) [Compound 14, Ethyl (Z)-5-(4-bromophenyl)-2-(4-hydroxybenzylidene)-7-methyl-3-oxo-2,3-dihydro-5H-thiazolo[3,2-a]pyrimidine-6-carboxylate], for which the melting point lay within 207 to 209 °C. Besides, the IC50 in data set [4] (setting [11]) amounted to 53.3 ± 4.2 µM. Moreover, the IC50 in data set [5] (Homo sapiens, HeLa) is 53.2 ± 4.2 µM. Further, the IC50 in data set [8] (setting [13]) is 32.1 ± 2.5 µM. Moreover, in [9] (48 h, read-out: IC50 PC3), the IC50 was determined as 49.3 ± 3.9 µM. Besides, in data set [10] (setting [16]), the IC50 is 31 ± 2.4 µM.
Compound `CCOC(=O)C1=C(C)N=c2s/c(=C\c3ccc(O)cc3)c(=O)n2C1c1cccc([N+](=O)[O-])c1` (stereo not drawn) [Compound 15, Ethyl (Z)-2-(4-hydroxybenzylidene)-7-methyl-5-(3-nitrophenyl)-3-oxo-2,3-dihydro-5H-thiazolo[3,2-a]pyrimidine-6-carboxylate] had a melting point of 190 to 192 °C. In addition, the IC50 in data set [4] (setting [11]) is greater than 100 µM. For the same compound, in [5] (Homo sapiens, HeLa), the IC50 turned out to be 91.4 ± 7.2 µM. Moreover, the IC50 in [8] (setting [13]) was 74.5 ± 5.7 µM. The concentration for half-maximal inhibition (IC50) in data set [9] (48 h, read-out: IC50 PC3) is 70 ± 5.5 µM. In addition, in data set [10] (setting [16]), the IC50 was greater than 100 µM.
For the compound `CNC(=O)c1cc(Oc2ccc(NC(=O)Nc3ccc(Cl)c(C(F)(F)F)c3)cc2)ccn1` [Sorafenib, reference compound], the IC50 was determined as 27.5 ± 2.2 µM in [4] (setting [11]); 27.5 ± 2.2 µM in [4] (setting [12]); 21.7 ± 1.7 µM in data set [5] (Homo sapiens, HeLa); 13 ± 1.2 µM in data set [8] (setting [13]); 13 ± 1.2 µM in data set [8] (setting [14]); 12.7 ± 1.1 µM in data set [9] (48 h, read-out: IC50 PC3). Further, the IC50 in [9] (setting [15]) amounted to 27.5 ± 2.2 µM; in data set [10] (setting [16]), 25 ± 1.8 µM; in data set [10] (setting [17]), 25 ± 1.8 µM. Moreover, in [6], inhibition was half-maximal at 21.7 ± 1.7 µM (IC50 at 48 h).
Consider “ethyl (Z)-2-(2-hydroxybenzylidene)-5-(4-methoxyphenyl)-7-methyl-3-oxo-2,3-dihydro-5H-thiazolo[3,2-a]pyrimidine-6-carboxylate [Compound 8]”, for which the IC50 in data set [4] (48 h, mean ± SD, read-out: IC50 MCF-7) was found to be 93.3 ± 8.2 µM; in data set [5] (MTT, mean ± SD, triplicate) it was 56.4 ± 4.5 µM; in data set [8] (48 h, mean ± SD, read-out: IC50 HuTu 80), 85.9 ± 8 µM; in [9] (48 h, read-out: IC50 PC3), 93.7 ± 8.5 µM; in data set [10] (48 h, read-out: IC50 M-HeLa) it was 90 ± 8.3 µM.

The record behind these values is article PMC9693259, “Synthesis, Self-Assembly in Crystalline Phase and Anti-Tumor Activity of 2-(2-/4-Hydroxybenzylidene)thiazolo[3,2-a]pyrimidines” (Molecules, 2022).
